Results from PubChem BioAssay AID248 (DTP/NCI, 2004).
Where “and” joins values, the source holds several entries; their conditions need not be identical. Equal values may be shown once. Toxic doses and inconclusive results are not listed.

System: L1210 leukemia ip in BDF1 mice, survival T/C
Assay: NCI In Vivo Anticancer Drug Screen. Data for tumor model L1210 Leukemia (intraperitoneal) in B6D2F1 (BDF1) mice
Conditions: endpoint: mean survival time, higher = longer survival
Procedure, shortened: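 Tumor was transplanted into mice, which were then dosed with test compound or vehicle alone. Survival was recorded for each group, and the treated figure was expressed relative to the control figure.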

[1] = dose: 12.5 mg/kg/injection, schedule: Q01DX009 (ip), vehicle: saline sonified
[2] = dose: 100.0 mg/kg/injection, schedule: Q04DX003 (ip), vehicle: saline
[3] = dose: 200.0 mg/kg/injection, schedule: Q04DX003 (ip), vehicle: saline
[4] = dose: 400.0 mg/kg/injection, schedule: Q04DX003 (ip), vehicle: saline

## COc1ccc(Cl)cc1NC(=O)N(CCCl)N=O
dose: 0.1 mg/kg/injection, schedule: Q01DX009 (ip), vehicle: carboxymethylcellulose (CMC)
  T/C: 103 % of control
dose: 1.0 mg/kg/injection, schedule: Q01DX001 (ip), vehicle: carboxymethylcellulose (CMC)
  T/C: 122 % of control
dose: 1.0 mg/kg/injection, schedule: Q01DX009 (ip), vehicle: Klucel (hydroxypropylcellulose) (HPC)
  T/C: 105 % of control
dose: 2.0 mg/kg/injection, schedule: Q01DX001 (ip), vehicle: carboxymethylcellulose (CMC)
  T/C: 117 % of control
dose: 2.12 mg/kg/injection, schedule: Q01DX001 (ip), vehicle: Klucel (hydroxypropylcellulose) (HPC)
  T/C: 117 % of control
dose: 4.25 mg/kg/injection, schedule: Q01DX001 (ip), vehicle: Klucel (hydroxypropylcellulose) (HPC)
  T/C: 119 % of control
dose: 5.0 mg/kg/injection, schedule: Q01DX009 (ip), vehicle: Klucel (hydroxypropylcellulose) (HPC)
  T/C: 105 % of control
dose: 6.0 mg/kg/injection, schedule: Q01DX009 (ip), vehicle: carboxymethylcellulose (CMC)
  T/C: 153 % of control
dose: 8.8 mg/kg/injection, schedule: Q01DX009 (ip), vehicle: carboxymethylcellulose (CMC)
  T/C: 166 % of control
dose: 15.0 mg/kg/injection, schedule: Q01DX001 (ip), vehicle: carboxymethylcellulose (CMC)
  T/C: 151 % of control
dose: 17.0 mg/kg/injection, schedule: Q01DX001 (ip), vehicle: Klucel (hydroxypropylcellulose) (HPC)
  T/C: 158 % of control
dose: 17.0 mg/kg/injection, schedule: Q01DX009 (ip), vehicle: Klucel (hydroxypropylcellulose) (HPC)
  T/C: 174 % of control
dose: 20.0 mg/kg/injection, schedule: Q01DX009 (ip), vehicle: carboxymethylcellulose (CMC)
  T/C: 100 % of control
dose: 26.0 mg/kg/injection, schedule: Q01DX001 (ip), vehicle: carboxymethylcellulose (CMC)
  T/C: 151 % of control and 196 % of control
dose: 26.0 mg/kg/injection, schedule: Q01DX009 (ip), vehicle: Klucel (hydroxypropylcellulose) (HPC)
  T/C: 87 % of control
dose: 30.0 mg/kg/injection, schedule: Q01DX001 (ip), vehicle: carboxymethylcellulose (CMC)
  T/C: 151 % of control
dose: 30.0 mg/kg/injection, schedule: Q01DX009 (ip), vehicle: carboxymethylcellulose (CMC)
  T/C: 98 % of control
dose: 40.0 mg/kg/injection, schedule: Q01DX001 (ip), vehicle: carboxymethylcellulose (CMC)
  T/C: 93 % of control
dose: 75.0 mg/kg/injection, schedule: Q01DX001 (ip), vehicle: carboxymethylcellulose (CMC)
  T/C: 95 % of control

## Cc1c(Cl)cc(C(C)C)c(O)c1CN1CCCCC1
dose: 222.0 mg/kg/injection, schedule: Q01DX Z (ip), vehicle: saline
  T/C: 92 % of control
dose: 333.0 mg/kg/injection, schedule: Q01DX Z (ip), vehicle: saline
  T/C: 91 % of control
dose: 500.0 mg/kg/injection, schedule: Q01DX Z (ip), vehicle: saline
  T/C: 91 % of control

## Cc1c2ccccc2c(CSC(=N)N)c2ccccc12
dose: 4.0 mg/kg/injection, schedule: Q01DX009 (ip), vehicle: saline sonified
  T/C: 119 % of control
dose: 4.0 mg/kg/injection, schedule: Q01DX009 (ip), vehicle: saline with Tween-80
  T/C: 112 % of control
dose: 4.0 mg/kg/injection, schedule: Q01DX009 (ip), vehicle: saline
  T/C: 120 % of control
dose: 6.25 mg/kg/injection, schedule: Q01DX009 (ip), vehicle: saline
  T/C: 109 % of control
dose: 6.25 mg/kg/injection, schedule: Q04DX003 (ip), vehicle: saline
  T/C: 98 % of control
dose: 8.0 mg/kg/injection, schedule: Q01DX009 (ip), vehicle: saline sonified
  T/C: 117 % of control
dose: 8.0 mg/kg/injection, schedule: Q01DX009 (ip), vehicle: saline with Tween-80
  T/C: 119 % of control
[1]
  T/C: 150 % of control
dose: 12.5 mg/kg/injection, schedule: Q01DX009 (ip), vehicle: saline with Tween-80
  T/C: 108 % of control
dose: 12.5 mg/kg/injection, schedule: Q01DX009 (ip), vehicle: saline
  T/C: 123 % of control
dose: 12.5 mg/kg/injection, schedule: Q04DX003 (ip), vehicle: saline
  T/C: 108 % of control
dose: 18.75 mg/kg/injection, schedule: Q01DX009 (ip), vehicle: saline sonified
  T/C: 95 % of control
dose: 18.75 mg/kg/injection, schedule: Q01DX009 (ip), vehicle: saline with Tween-80
  T/C: 87 % of control
dose: 25.0 mg/kg/injection, schedule: Q01DX009 (ip), vehicle: saline
  T/C: 93 % of control
dose: 25.0 mg/kg/injection, schedule: Q04DX003 (ip), vehicle: saline
  T/C: 114 % of control and 118 % of control

## C=CCc1cc(OC)c(OCc2ccccc2)cc1[N+](=O)[O-]
dose: 100.0 mg/kg/injection, schedule: Q04DX002 (ip), vehicle: saline with Tween-80
  T/C: 101 % of control
dose: 200.0 mg/kg/injection, schedule: Q04DX002 (ip), vehicle: saline with Tween-80
  T/C: 87 % of control
dose: 400.0 mg/kg/injection, schedule: Q04DX002 (ip), vehicle: saline with Tween-80
  T/C: 90 % of control

## CN1CCC=C(C(C)(C)O)C1
[2]
  T/C: 101 % of control
[3]
  T/C: 100 % of control
[4]
  T/C: 106 % of control

## CCCCOB(CI)OCCCC
dose: 6.25 mg/kg/injection, schedule: Q01DX009 (ip), vehicle: saline sonified
  T/C: 96 % of control
dose: 6.25 mg/kg/injection, schedule: Q04DX003 (ip), vehicle: saline sonified
  T/C: 94 % of control
[1]
  T/C: 100 % of control
dose: 12.5 mg/kg/injection, schedule: Q04DX003 (ip), vehicle: saline sonified
  T/C: 92 % of control
dose: 25.0 mg/kg/injection, schedule: Q01DX009 (ip), vehicle: saline sonified
  T/C: 104 % of control
dose: 25.0 mg/kg/injection, schedule: Q04DX003 (ip), vehicle: saline sonified
  T/C: 105 % of control

## CC1(C)N=C(N)N=C(N)N1c1ccc(CC(C(=O)Nc2ccc(S(=O)(=O)F)cc2)c2cccc3ccccc23)cc1 (configuration not stated)
dose: 100.0 mg/kg/injection, schedule: Q01DX001 (ip), vehicle: Klucel (hydroxypropylcellulose) (HPC)
  T/C: 95 % of control
dose: 200.0 mg/kg/injection, schedule: Q01DX001 (ip), vehicle: Klucel (hydroxypropylcellulose) (HPC)
  T/C: 89 % of control
dose: 400.0 mg/kg/injection, schedule: Q01DX001 (ip), vehicle: Klucel (hydroxypropylcellulose) (HPC)
  T/C: 89 % of control

## NC(=S)N/N=C/c1cc(Br)ccc1O
dose: 100.0 mg/kg/injection, schedule: Q01DX001 (ip), vehicle: carboxymethylcellulose (CMC)
  T/C: 100 % of control
dose: 200.0 mg/kg/injection, schedule: Q01DX001 (ip), vehicle: carboxymethylcellulose (CMC)
  T/C: 100 % of control
dose: 400.0 mg/kg/injection, schedule: Q01DX001 (ip), vehicle: carboxymethylcellulose (CMC)
  T/C: 105 % of control

## COCCN=C(N)C(N)=NCCOC
dose: 100.0 mg/kg/injection, schedule: Q04DX003 (ip), vehicle: saline with Tween-80
  T/C: 102 % of control
[2]
  T/C: 97 % of control
dose: 200.0 mg/kg/injection, schedule: Q04DX003 (ip), vehicle: saline with Tween-80
  T/C: 102 % of control
[3]
  T/C: 100 % of control
dose: 400.0 mg/kg/injection, schedule: Q04DX003 (ip), vehicle: saline with Tween-80
  T/C: 95 % of control
[4]
  T/C: 88 % of control

## COC12C(COC(=O)NCCO)C3=C(C(=O)C(C)=C(N)C3=O)N1CC1NC12 (configuration not stated)
dose: 5.0 mg/kg/injection, schedule: Q01DX009 (ip), vehicle: saline
  T/C: 121 % of control
dose: 10.0 mg/kg/injection, schedule: Q01DX009 (ip), vehicle: saline
  T/C: 122 % of control
dose: 12.0 mg/kg/injection, schedule: Q04DX003 (ip), vehicle: Klucel (hydroxypropylcellulose) (HPC)
  T/C: 94 % of control
dose: 19.0 mg/kg/injection, schedule: Q04DX003 (ip), vehicle: Klucel (hydroxypropylcellulose) (HPC)
  T/C: 111 % of control
dose: 28.0 mg/kg/injection, schedule: Q04DX003 (ip), vehicle: Klucel (hydroxypropylcellulose) (HPC)
  T/C: 111 % of control
dose: 40.0 mg/kg/injection, schedule: Q01DX009 (ip), vehicle: saline
  T/C: 102 % of control
dose: 43.0 mg/kg/injection, schedule: Q01DX001 (ip), vehicle: Klucel (hydroxypropylcellulose) (HPC)
  T/C: 121 % of control
dose: 43.0 mg/kg/injection, schedule: Q01DX009 (ip), vehicle: Klucel (hydroxypropylcellulose) (HPC)
  T/C: 109 % of control
dose: 43.0 mg/kg/injection, schedule: Q04DX003 (ip), vehicle: Klucel (hydroxypropylcellulose) (HPC)
  T/C: 115 % of control
dose: 100.0 mg/kg/injection, schedule: Q01DX003 (ip), vehicle: Klucel (hydroxypropylcellulose) (HPC)
  T/C: 103 % of control
dose: 150.0 mg/kg/injection, schedule: Q01DX001 (ip), vehicle: Klucel (hydroxypropylcellulose) (HPC)
  T/C: 102 % of control
dose: 150.0 mg/kg/injection, schedule: Q01DX003 (ip), vehicle: Klucel (hydroxypropylcellulose) (HPC)
  T/C: 94 % of control
dose: 200.0 mg/kg/injection, schedule: Q04DX002 (ip), vehicle: Klucel (hydroxypropylcellulose) (HPC)
  T/C: 91 % of control
dose: 225.0 mg/kg/injection, schedule: Q01DX001 (ip), vehicle: Klucel (hydroxypropylcellulose) (HPC)
  T/C: 91 % of control
dose: 225.0 mg/kg/injection, schedule: Q01DX003 (ip), vehicle: Klucel (hydroxypropylcellulose) (HPC)
  T/C: 95 % of control
dose: 400.0 mg/kg/injection, schedule: Q04DX002 (ip), vehicle: Klucel (hydroxypropylcellulose) (HPC)
  T/C: 91 % of control
